According to US10138255B2, “Piperazine derivatives as HIV protease inhibitors” (Merck Sharp & Dohme Corp., priority 2014, dated 2018):

Each molecule was assayed on HIV-1 (H9IIIB strain) (assay: Cell-Based HIV Infection Assay Using a Reporter (MT4-GFP cells)). Conditions: Human immunodeficiency virus 1, inflection point (IP) of viral growth inhibition; MT4-GFP cells infected with HIV-1 H9IIIB; 50% normal human serum; mean of at least two independent experiments; read-out: Cell Based IP (50% NHS).
Description: Cell-Based HIV Infection Assay Using a Reporter (“Cell-Based”):
MT4-GFP cells contain a stably integrated HIV long terminal repeat promoter directing the transcription of green fluorescent protein (GFP). When HIV infects the cell, GFP is produced and the cell becomes green. MT4-GFP cells (250,000 cells/mL) were bulk-infected with HIV-1 (H9IIIB strain) at low multiplicity of infection (MOI) in RPM 1640 media, supplemented with 10% FBS for 24 h. Cells were then washed once in RPMI 1640 plus 10% FBS and resuspended in RPMI plus 50% normal human serum (NHS). Test compounds were serial-diluted in DMSO using an ECHO liquid dispenser. A control well included a combination of three HIV drugs (an inhibitor of HIV protease, integrase strand transfer and a non-nucleoside reverse transcriptase inhibitor; triple drug). The infected MT4-GFP cells were added to a 384-well poly-D-lysine coated black plate with clear bottom in which the diluted test compounds were placed. The cells were seeded in the plate at 8,000 cells per well and the final DMSO concentration was 0.4%. Infected cells were quantified at both 24 and 48 h post incubation using an Acumen eX3 plate reader. Viral reproductive ratio (R0) was determined using the number of infected cells at 48 h divided by the number of infected cells at 24 h. Percent viral growth inhibition was calculated by [1−(R−Rtripledrug)/(RDMSO−Rtripledrug)]*100. Compound potency inflection point (IP) was determined with use of a 4-parameter dose response curve analysis.
Data shown in the table reflects the mean of at least two independent experiments.

Which EC50 does the source give for `COC(=O)N[C@H](C(=O)Nc1cccc(F)c1CCC1CNC2CCCS(=O)(=O)N1C2)C(c1ccc(OC)nc1)c1ccc(F)c(F)c1` (stereo in doubt) [Example 68, methyl [(1S,2R)-2-(3,4-difluorophenyl)-1-({2-[2-(2,2-dioxido-2-thia-1,7-diazabicyclo[4.3.1]dec-9-yl)ethyl]-3-fluorophenyl}carbamoyl)-2-(6-methoxypyridin-3-yl)ethyl]carbamate] here?
The EC50 was 12 nM.

With `COC(=O)N[C@H](C(=O)Nc1cccc(F)c1CCC1CNC2CCCS(=O)(=O)N1C2)C(c1ccc(Cl)cc1)c1ccc(OC(C)C)nc1` (stereo in doubt) [Example 94, methyl {(1S,2R)-2-(4-chlorophenyl)-1-({2-[2-(2,2-dioxido-2-thia-1,7-diazabicyclo[4.3.1]dec-9-yl)ethyl]-3-fluorophenyl}carbamoyl)-2-[6-(1-methylethoxy)pyridin-3-yl]ethyl}carbamate] as the molecule, how does the EC50 read?
Its EC50 is 6.4 nM.

How did the EC50 turn out when `N[C@H](C(=O)Nc1cccc(F)c1CCC1CNC2CCCS(=O)(=O)N1C2)C(c1ccc(Cl)cc1)c1ccnc(C(F)(F)F)c1` (stereo in doubt) [Example 123, (βR)-4-chloro-N-{2-[2-(2,2-dioxido-2-thia-1,7-diazabicyclo[4.3.1]dec-9-yl)ethyl]-3-fluorophenyl}-β-[2-(trifluoromethyl)pyridin-4-yl]-L-phenylalaninamide] was run?
The EC50 was 6.8 nM.

For `CC(C)Oc1ccc(C(c2ccc(Cl)cc2)[C@H](N)C(=O)Nc2cncc(F)c2CC[C@H]2CN[C@@H]3CCCS(=O)(=O)N2C3)cn1` (stereo in doubt) [Example 240, (2S,3R)-2-amino-3-(4-chlorophenyl)-N-(4-(2-((6R,9S)-2,2-dioxido-2-thia-1,7-diazabicyclo[4.3.1]decan-9-yl)ethyl)-5-fluoropyridin-3-yl)-3-(6-isopropoxypyridin-3-yl)propanamide], which EC50 is on record?
The EC50 was 8.4 nM.

Which EC50 does the source give for `N[C@H](C(=O)Nc1cccc(F)c1CCC1CNC2CCCS(=O)(=O)N1C2)[C@@H](c1ccc(F)cc1)c1cc(F)cc(F)c1` (stereo partly drawn) [Example 1, (βS)—N-{2-[2-(2,2-Dioxido-2-thia-1,7-diazabicyclo[4.3.1]dec-9-yl)ethyl]-3-fluorophenyl}-3,5-difluoro-β-(4-fluorophenyl)-L-phenylalaninamide] here?
The EC50 was 2.9 nM.

With `N[C@H](C(=O)Nc1cccc(F)c1CCC1CNC2CCCS(=O)(=O)N1C2)[C@@H](c1ccc(F)cc1)c1cccc(C(F)(F)F)c1` (stereo partly drawn) [Example 2, (βS)—N-{2-[2-(2,2-Dioxido-2-thia-1,7-diazabicyclo[4.3.1]dec-9-yl)ethyl]-3-fluorophenyl}-β-(4-fluorophenyl)-3-(trifluoromethyl)-L-phenylalaninamide] as the molecule, how does the EC50 read?
Its EC50 is 6.7 nM.

`COC(=O)N[C@H](C(=O)Nc1cccc(F)c1CCC1CNC2CCCS(=O)(=O)N1C2)[C@@H](c1ccc(Cl)cc1)C(C)C` (stereo partly drawn) [Example 3, Methyl [(1S,2R)-2-(4-chlorophenyl)-1-({2-[2-(2,2-dioxido-2-thia-1,7-diazabicyclo[4.3.1]dec-9-yl)ethyl]-3-fluorophenyl}carbamoyl)-3-methylbutyl]carbamate] was tested. Which EC50 did it give?
The EC50 was 14 nM.

Which EC50 does the source give for `COC(=O)N[C@H](C(=O)Nc1cccc(F)c1CCC1CNC2CCCS(=O)(=O)N1C2)[C@@H](c1ccc(Cl)cc1)C1CC(F)(F)C1` (stereo partly drawn) [Example 4, Methyl [(1S,2R)-2-(4-chlorophenyl)-2-(3,3-difluorocyclobutyl)-1-({2-[2-(2,2-dioxido-2-thia-1,7-diazabicyclo[4.3.1]dec-9-yl)ethyl]-3-fluorophenyl}carbamoyl)ethyl]carbamate] here?
Its EC50 is 13 nM.

For `COC(=O)N[C@H](C(=O)Nc1cccc(F)c1CCC1CNC2CCCS(=O)(=O)N1C2)[C@@H](c1ccc(Cl)cc1)C1CCC(F)(F)CC1` (stereo partly drawn) [Example 5, Methyl [(1S,2R)-2-(4-chlorophenyl)-2-(4,4-difluorocyclohexyl)-1-({2-[2-(2,2-dioxido-2-thia-1,7-diazabicyclo[4.3.1]dec-9-yl)ethyl]-3-fluorophenyl}carbamoyl)ethyl]carbamate], which EC50 is on record?
Its EC50 is 9.4 nM.

How did the EC50 turn out when `CCO[C@H]1CC[C@H]([C@H](c2ccc(Cl)cc2)[C@H](N)C(=O)Nc2cccc(F)c2CC[C@H]2CN[C@@H]3CCCS(=O)(=O)N2C3)CC1` [Example 6, (2S,3R)-2-amino-3-(4-chlorophenyl)-N-(2-(2-((6R,9S)-2,2-dioxido-2-thia-1,7-diazabicyclo[4.3.1]decan-9-yl)ethyl)-3-fluorophenyl)-3-((1r,4R)-4-ethoxycyclohexyl)propanamide] was run?
Its EC50 is 6.2 nM.

For `CO[C@H]1CC[C@H]([C@H](c2ccc(Cl)cc2)[C@H](N)C(=O)Nc2cccc(F)c2CC[C@H]2CN[C@@H]3CCCS(=O)(=O)N2C3)CC1` [Example 7, (βR)-4-Chloro-N-(2-{2-[(6R,9S)-2,2-dioxido-2-thia-1,7-diazabicyclo[4.3.1]dec-9-yl]ethyl}-3-fluorophenyl)-β-[(1r,4R)-4-methoxycyclohexyl]-L-phenylalaninamide], which EC50 is on record?
Its EC50 is 3.1 nM.

For `COC(=O)N[C@H](C(=O)Nc1cccc(F)c1CC[C@H]1CN[C@@H]2CCCS(=O)(=O)N1C2)[C@@H](c1ccc(Cl)cc1)[C@H]1CCO[C@@H](CC(F)(F)F)C1` [Example 8, Methyl ((1R,2S)-1-(4-chlorophenyl)-3-((2-(2-((6R,9S)-2,2-dioxido-2-thia-1,7-diazabicyclo[4.3.1]decan-9-yl)ethyl)-3-fluorophenyl)amino)-3-oxo-1-((2R,4S)-2-(2,2,2-trifluoroethyl)tetrahydro-2H-pyran-4-yl)propan-2-yl)carbamate], which EC50 is on record?
The EC50 was 8.7 nM.

Which EC50 does the source give for `COC(=O)N[C@H](C(=O)Nc1cccc(F)c1CCC1CNC2CCCS(=O)(=O)N1C2)[C@H](CCC1CCOCC1)c1ccc(Cl)c(F)c1` (stereo partly drawn) [Example 9, Methyl [(1S,2R)-2-(4-chloro-3-fluorophenyl)-1-({2-[2-(2,2-dioxido-2-thia-1,7-diazabicyclo[4.3.1]dec-9-yl)ethyl]-3-fluorophenyl}carbamoyl)-4-(tetrahydro-2H-pyran-4-yl)butyl]carbamate] here?
Its EC50 is 7.1 nM.

For `CC1(C)C[C@@H]([C@H](c2ccc(Cl)cc2)[C@H](N)C(=O)Nc2cccc(F)c2CC[C@H]2CN[C@@H]3CCCS(=O)(=O)N2C3)CCO1` [Example 10, (2S,3R)-2-amino-3-(4-chlorophenyl)-3-((S)-2,2-dimethyltetrahydro-2H-pyran-4-yl)-N-(2-(2-((6R,9S)-2,2-dioxido-2-thia-1,7-diazabicyclo[4.3.1]decan-9-yl)ethyl)-3-fluorophenyl)propanamide], which EC50 is on record?
Its EC50 is 6.7 nM.

How did the EC50 turn out when `CC(C)Oc1ccc([C@H](c2ccc(Cl)cc2)[C@H](N)C(=O)Nc2cccc(F)c2CCC2CNC3CCCS(=O)(=O)N2C3)cn1` (stereo partly drawn) [Example 11, (βS)-4-Chloro-N-{2-[2-(2,2-dioxido-2-thia-1,7-diazabicyclo[4.3.1]dec-9-yl)ethyl]-3-fluorophenyl}-β-[6-(1-methylethoxy)pyridin-3-yl]-L-phenylalaninamide] was run?
Its EC50 is 4 nM.

With `CC(F)(F)c1ccc([C@H](c2ccc(Cl)cc2)[C@H](N)C(=O)Nc2cccc(F)c2CC[C@H]2CN[C@@H]3CCCS(=O)(=O)N2C3)cn1` [Example 12, (2S,3S)-2-amino-3-(4-chlorophenyl)-3-(6-(1,1-difluoroethyl)pyridin-3-yl)-N-(2-(2-((6R,9S)-2,2-dioxido-2-thia-1,7-diazabicyclo[4.3.1]decan-9-yl)ethyl)-3-fluorophenyl)propanamide] as the molecule, how does the EC50 read?
The EC50 was 5.9 nM.

For `COC(=O)N[C@H](C(=O)Nc1cccc(F)c1CC[C@H]1CN[C@@H]2CCCS(=O)(=O)N1C2)[C@]1(c2ccc(Cl)cc2)CC[C@@H](OC)CC1` [Example 13, Methyl {(1S)-1-[trans-1-(4-chlorophenyl)-4-methoxycyclohexyl]-2-[(2-{2-[(6R,9S)-2,2-dioxido-2-thia-1,7-diazabicyclo[4.3.1]dec-9-yl]ethyl}-3-fluorophenyl)amino]-2-oxoethyl}carbamate], which EC50 is on record?
Its EC50 is 7.6 nM.

`COC(=O)N1CCC(c2ccc(Cl)cc2)([C@H](N)C(=O)Nc2cccc(F)c2CC[C@H]2CN[C@@H]3CCCS(=O)(=O)N2C3)CC1` [Example 14, Methyl 4-{(1S)-1-amino-2-[(2-{2-[(6R,9S)-2,2-dioxido-2-thia-1,7-diazabicyclo[4.3.1]dec-9-yl]ethyl}-3-fluorophenyl)amino]-2-oxoethyl}-4-(4-chlorophenyl)piperidine-1-carboxylate] was tested. Which EC50 did it give?
The EC50 was 14 nM.

Which EC50 does the source give for `C[C@@H]1C[C@H](C(c2ccc(F)cc2)[C@H](N)C(=O)Nc2cccc(F)c2CC[C@H]2CN[C@@H]3CCCS(=O)(=O)N2C3)C[C@H](C)O1` (stereo partly drawn) [Example 15, β-[(2R,4r,6S)-2,6-Dimethyltetrahydro-2H-pyran-4-yl]-N-(2-{2-[(6R,9S)-2,2-dioxido-2-thia-1,7-diazabicyclo[4.3.1]dec-9-yl]ethyl}-3-fluorophenyl)-4-fluoro-L-phenylalaninamide] here?
Its EC50 is 8.8 nM.

Same assay, conditions: inflection point (IP) of viral growth inhibition; MT4-GFP cells infected with HIV-1 H9IIIB; 50% normal human serum; mean of at least two independent experiments; read-out: Cell Based IP (50% NHS)

With `COC(=O)N[C@H](C(=O)Nc1cncc(F)c1CC[C@H]1CN[C@@H]2CCCS(=O)(=O)N1C2)C1(c2ccc(Cl)cc2)CCC(C(F)(F)F)CC1` (relative stereo) [Example 270, methyl {(1S)-1-[cis-1-(4-chlorophenyl)-4-(trifluoromethyl)cyclohexyl]-2-[(4-{2-[(6R,9S)-2,2-dioxido-2-thia-1,7-diazabicyclo[4.3.1]dec-9-yl]ethyl}-5-fluoropyridin-3-yl)amino]-2-oxoethyl}carbamate] as the molecule, how does the EC50 read?
Its EC50 is 20 nM.
